The values below come from paper PMC7739374 (ACS chemical biology, 2020).

A short description of data set [1]: Tryptic digestion, HPLC-based proteolytic stability assay. The data set is classed as in vitro ADME.
The test system of another data set is recombinant H-Ras. Particulars: within range of full-length Sos; cited from earlier work.
In data set [2] the test system is Ras activation and ERK signaling. To be noted: cited from earlier work.
Data set [3] has as its system H358 (K-Ras G12C) lung cancer cells. The experiment in a line: MTT cell viability. The data set is classed as cell-based. Particulars: 72 hours.
In the next data set the test system is proteinase K. The data set is classed as in vitro ADME.
The test system of the next data set is trypsin. The experiment in a line: Tryptic digestion, HPLC-based proteolytic stability assay. The data set is classed as in vitro ADME.

Where a SMILES comes first, the peptide text is derived from it. [ ]: non-standard residue; d: D form. β3hI = CC[C@H](C)[C@H](N)CC(=O)O; β3hE = N[C@@H](CCC(=O)O)CC(=O)O; β3hA = C[C@H](N)CC(=O)O

A word on the half-life: it is the time in which the quantity being followed falls by half. Read a low half-life as fast loss. Take `CC[C@H](C)[C@H](NC(=O)CN1C/C=C/CCC(=O)N[C@@H](Cc2ccccc2)C(=O)N[C@@H](CCC(=O)O)C1=O)C(=O)N[C@@H](Cc1ccc(O)cc1)C(=O)N[C@@H](CCCNC(=N)N)C(=O)N[C@@H](CC(C)C)C(=O)N[C@@H](CCC(=O)O)C(=O)N[C@@H](CC(C)C)C(=O)N[C@@H](CC(C)C)C(=O)N[C@@H](CCCCN)C(=O)N[C@@H](C)C(=O)N[C@@H](CCC(=O)O)C(=O)N[C@@H](CCC(=O)O)C(=O)N[C@@H](C)C(=O)N[C@@H](CC(N)=O)C(N)=O` [HBSSOS]: the half-life in data set [1] (trypsin) was 3.1 h. The “affinity for recombinant H-Ras” value in the data set with recombinant H-Ras is on record as “micromolar affinity”. Further, the “modulation of Ras activation and ERK signaling” value in data set [2] is listed as “concentration-dependent manner”.
With `CC[C@H](C)[C@@H](CC(=O)N[C@@H](Cc1ccc(O)cc1)C(=O)N[C@@H](CCCNC(=N)N)C(=O)N[C@@H](CC(C)C)C(=O)N[C@@H](CCC(=O)O)CC(=O)N[C@@H](CC(C)C)C(=O)N[C@@H](CC(C)C)C(=O)N[C@@H](CCCCN)C(=O)N[C@@H](C)CC(=O)N[C@@H](CCC(=O)O)C(=O)N[C@@H](CCC(=O)O)C(=O)N[C@@H](C)C(=O)N[C@@H](CC(N)=O)C(N)=O)NC(=O)CN1C/C=C/CCCC(=O)N[C@@H](Cc2ccccc2)C(=O)N[C@@H](CCC(=O)O)C1=O` [α3βHBSSOS], in data set [3], the “effect on cell viability, H358” value was “impacts viability of H358 cells at higher concentrations”. Besides, in the data set with proteinase K, the “fold increase in half-life with proteinase K” value was 360 fold. Moreover, the “fold increase in half-life, tryptic digestion” value with trypsin was ~ 6 fold. The half-life in data set [1] (isolated enzyme trypsin) was 17.6 h.
`CC[C@H](C)[C@@H](CC(=O)N[C@@H](Cc1ccc(O)cc1)C(=O)N[C@@H](CCCNC(=N)N)C(=O)N[C@@H](CC(C)C)C(=O)N[C@@H](CCC(=O)O)CC(=O)N[C@@H](CC(C)C)C(=O)N[C@@H](CC(C)C)C(=O)N[C@@H](CCCCN)C(=O)N[C@@H](C)CC(=O)N[C@@H](CCC(=O)O)C(=O)N[C@@H](CCC(=O)O)C(=O)N[C@@H](C)C(=O)N[C@@H](CC(N)=O)C(N)=O)NC(=O)CNC(=O)[C@H](CCC(=O)O)NC(=O)[C@H](Cc1ccccc1)NC(C)=O` [α3βUNCSOS] (Ac-FEG[β3hI]YRL[β3hE]LLK[β3hA]EEAN-NH2; N-terminus and C-terminus assumed): the “fold increase in half-life, tryptic digestion” value in the data set on trypsin came out at 8.5 fold. Besides, the half-life in data set [1] (isolated enzyme trypsin) is 13.6 h.
Compound `CC[C@H](C)[C@H](NC(=O)CNC(=O)[C@H](CCC(=O)O)NC(=O)[C@H](Cc1ccccc1)NC(C)=O)C(=O)N[C@@H](Cc1ccc(O)cc1)C(=O)N[C@@H](CCCNC(=N)N)C(=O)N[C@@H](CC(C)C)C(=O)N[C@@H](CCC(=O)O)C(=O)N[C@@H](CC(C)C)C(=O)N[C@@H](CC(C)C)C(=O)N[C@@H](CCCCN)C(=O)N[C@@H](C)C(=O)N[C@@H](CCC(=O)O)C(=O)N[C@@H](CCC(=O)O)C(=O)N[C@@H](C)C(=O)N[C@@H](CC(N)=O)C(N)=O` [αUNCSOS] (Ac-FEGIYRLELLKAEEAN-NH2; N-terminus and C-terminus assumed) showed a half-life in data set [1] (trypsin) of 1.6 h.
